Reference: patent publication US20100210633A1, “CARBOXAMIDE COMPOUNDS AND THEIR USE” (EPIX Delaware, Inc., priority 2006, published 2010)

Target: CCR2 (Homo sapiens, UniProt P41597)
Experiment: calcium flux assay
Format: cell-based
Details: read-out: IC50 Ca++ flux
Description: The capacity of the compounds of the invention to antagonize CCR2 function can be determined using a suitable screen (e.g., high throughput assay). For example, an agent can be tested in an extracellular acidification assay, calcium flux assay, ligand binding assay or chemotaxis assay (see, for example, Hesselgesser et al., J Biol. Chem. 273(25):15687-15692 (1998), WO 00/05265 and WO 98/02151).

CCR2, sequence (P41597 whole entry): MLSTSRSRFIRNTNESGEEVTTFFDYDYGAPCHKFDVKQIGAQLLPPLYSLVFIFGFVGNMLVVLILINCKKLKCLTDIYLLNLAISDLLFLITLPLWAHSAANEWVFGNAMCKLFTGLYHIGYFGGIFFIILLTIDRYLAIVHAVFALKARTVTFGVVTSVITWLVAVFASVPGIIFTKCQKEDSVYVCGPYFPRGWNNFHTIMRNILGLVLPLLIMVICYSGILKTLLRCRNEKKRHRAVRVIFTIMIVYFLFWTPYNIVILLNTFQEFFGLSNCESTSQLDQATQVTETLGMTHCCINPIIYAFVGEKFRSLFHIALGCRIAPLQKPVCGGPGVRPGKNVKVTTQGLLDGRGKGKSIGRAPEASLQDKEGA

IC50 [nM]	Compound
> 1000	COCC1(C(=O)NCc2cc(C(F)(F)F)cc(C(F)(F)F)c2)CCN(CC2CCOCC2)CC1 [Example 11, N-(3,5-Bis(trifluoromethyl)benzyl)-1-((tetrahydro-2H-pyran-4-yl)methyl)-4-(methoxymethyl)piperidine-4-carboxamide]
> 1000	CC(C)CC1(C(=O)NCc2cc(C(F)(F)F)cc(C(F)(F)F)c2)CCN(CC2CCOCC2)CC1 [Example 12, N-(3,5-Bis(trifluoromethyl)benzyl)-4-isobutyl-1-((tetrahydro-2H-pyran-4-yl)methyl)piperidine-4-carboxamide]
> 1000	O=C(NCc1cc(C(F)(F)F)cc(C(F)(F)F)c1)C1(Cc2ccncc2)CCN(CC2CCOCC2)CC1 [Example 13, N-(3,5-Bis(trifluoromethyl)benzyl)-4-(pyridin-4-ylmethyl)-1-((tetrahydro-2H-pyran-4-yl)methyl)piperidine-4-carboxamide]
> 1000	CC(C)CC1(C(=O)NCc2cc(C(F)(F)F)cc(C(F)(F)F)c2)CCN(CCN2CCCCC2)CC1 [Example 18, N-(3,5-Bis(trifluoromethyl)benzyl)-4-isobutyl-1-(2-(piperidin-1-yl)ethyl)piperidine-4-carboxamide]
> 1000	CC(C)CC1(C(=O)NCc2cc(C(F)(F)F)cc(C(F)(F)F)c2)CCN(c2ccccn2)CC1 [Example 19, N-(3,5-Bis(trifluoromethyl)benzyl)-4-isobutyl-1-(pyridin-2-yl)piperidine-4-carboxamide]
200 to 1000	CC(C)CC1(C(=O)NCc2cc(C(F)(F)F)cc(C(F)(F)F)c2)CCN(Cc2ccc3c(c2)OCO3)CC1 [Example 21, 1-(Benzo[d][1,3]dioxol-5-ylmethyl)-N-(3,5-bis(trifluoromethyl)benzyl)-4-isobutylpiperidine-4-carboxamide]
200 to 1000	CC(C)CC1(C(=O)NCc2cc(C(F)(F)F)cc(C(F)(F)F)c2)CCN(C2CCC(O)(c3ccc4c(c3)OCO4)CC2)CC1 (stereo not drawn) [Example 26, 1-(4-(Benzo[d][1,3]dioxol-5-yl)-4-hydroxycyclohexyl)-N-(3,5-bis(trifluoromethyl)benzyl)-4-isobutylpiperidine-4-carboxamide]
> 1000	O=C(NCc1cc(C(F)(F)F)cc(C(F)(F)F)c1)C1(CC2CCOCC2)CCN(Cc2ccc3c(c2)OCO3)CC1 [Example 27, 1-(Benzo[d][1,3]dioxol-5-ylmethyl)-N-(3,5-bis(trifluoromethyl)benzyl)-4-((tetrahydro-2H-pyran-4-yl)methyl)piperidine-4-carboxamide]
< 200	COc1ccc(CN2CCC(CC(C)C)(C(=O)NCc3cc(C(F)(F)F)cc(C(F)(F)F)c3)CC2)cc1O [Example 30, N-(3,5-Bis(trifluoromethyl)benzyl)-1-(3-hydroxy-4-methoxybenzyl)-4-isobutylpiperidine-4-carboxamide]
> 1000	CC(C)CC1(C(=O)N2CCN(c3cccc(C(F)(F)F)c3)CC2)CCN(Cc2ccc3c(c2)OCO3)CC1 [Example 40, (1-(Benzo[d][1,3]dioxol-5-ylmethyl)-4-isobutylpiperidin-4-yl)(4-(3-(trifluoromethyl)phenyl)piperazin-1-yl)methanone]
> 1000	CC(C)CC1(C(=O)N[C@H](C)c2cc(C(F)(F)F)cc(C(F)(F)F)c2)CCN(Cc2ccc3c(c2)OCO3)CC1 [Example 44, (R)-1-(Benzo[d][1,3]dioxol-5-ylmethyl)-N-(1-(3,5-bis(trifluoromethyl)phenyl)ethyl)-4-isobutylpiperidine-4-carboxamide]
> 1000	CC(C)CC1(C(=O)N[C@@H](C)c2cc(C(F)(F)F)cc(C(F)(F)F)c2)CCN(Cc2ccc3c(c2)OCO3)CC1 [Example 45, (S)-1-(benzo[d][1,3]dioxol-5-ylmethyl)-N-(1-(3,5-bis(trifluoromethyl)phenyl)ethyl)-4-isobutylpiperidine-4-carboxamide]
< 200	O=C(NCc1cc(C(F)(F)F)cc(C(F)(F)F)c1)C1(CC2CC2)CCN(Cc2ccc3c(c2)OC(F)(F)O3)CC1 [Example 50, N-(3,5-Bis(trifluoromethyl)benzyl)-4-(cyclopropylmethyl)-1-((2,2-difluorobenzo[d][1,3]dioxol-5-yl)methyl)piperidine-4-carboxamide]
> 1000	CC(C)CC1(C(=O)NCc2cc(C(F)(F)F)cc(C(F)(F)F)c2)CCN(CC(=O)N2CCS(=O)(=O)CC2)CC1 [Example 53, N-(3,5-Bis(trifluoromethyl)benzyl)-4-isobutyl-1-(2-oxo-2-sulphonylmorpholinoethyl)piperidine-4-carboxamide]
> 1000	O=C(NCCN1CCCC1)c1cc(CN2CCC(CC3CC3)(C(=O)NCc3cc(C(F)(F)F)cc(C(F)(F)F)c3)CC2)ccc1F [Example 59, N-(3,5-Bis(trifluoromethyl)benzyl)-4-(cyclopropylmethyl)-1-(4-fluoro-3-(2-(pyrrolidin-1-yl)ethylcarbamoyl)benzyl)piperidine-4-carboxamide]
200 to 1000	CCS(=O)(=O)NC(=O)c1cc(CN2CCC(CC3CC3)(C(=O)NCc3cc(C(F)(F)F)cc(C(F)(F)F)c3)CC2)ccc1F [Example 64, N-(3,5-Bis(trifluoromethyl)benzyl)-4-(cyclopropylmethyl)-1-(3-(ethylsulfonylcarbamoyl)-4-fluorobenzyl)piperidine-4-carboxamide]
200 to 1000	N#Cc1ccc(Oc2ccc(CN3CCC(CC4CC4)(C(=O)NCc4cc(C(F)(F)F)cc(C(F)(F)F)c4)CC3)cn2)cc1 [Example 67, N-(3,5-Bis(trifluoromethyl)benzyl)-1-((6-(4-cyanophenoxy)pyridin-3-yl)methyl)-4-(cyclopropylmethyl)piperidine-4-carboxamide]
200 to 1000	CC(C)(CN1CCC(CC2CC2)(C(=O)NCc2cc(C(F)(F)F)cc(C(F)(F)F)c2)CC1)N1CCOCC1 [Example 69, N-(3,5-Bis(trifluoromethyl)benzyl)-4-(cyclopropylmethyl)-1-(2-methyl-2-morpholinopropyl)piperidine-4-carboxamide]
200 to 1000	O=C(O)c1cc(CN2CCC(CC3CC3)(C(=O)NCc3cc(C(F)(F)F)cc(C(F)(F)F)c3)C2)ccc1F (stereo not drawn) [Example 79, 5-((3-(3,5-Bis(trifluoromethyl)benzylcarbamoyl)-3-(cyclopropylmethyl)pyrrolidin-1-yl)methyl)-2-fluorobenzoic acid]
200 to 1000	COc1ccc(CN2CCC(CC3CC3)(C(=O)NCc3cc(C(F)(F)F)cc(C(F)(F)F)c3)C2)cc1F (stereo not drawn) [Example 80, N-(3,5-Bis(trifluoromethyl)benzyl)-3-(cyclopropylmethyl)-1-(3-fluoro-4-methoxybenzyl)pyrrolidine-3-carboxamide]
< 200	O=C(NCc1cc(C(F)(F)F)cc(C(F)(F)F)c1)C1(CC2CC2)CCN(CC2CCOCC2)C1 (stereo not drawn) [Example 81, N-(3,5-Bis(trifluoromethyl)benzyl)-3-(cyclopropylmethyl)-1-((tetrahydro-2H-pyran-4-yl)methyl)pyrrolidine-3-carboxamide]
